# Results published in patent US7556957B2, “Coronavirus-like particles comprising functionally deleted genomes” (Stichting voor de Technische Wetenschappen, priority 2001, dated 2009).
# Where no end group is shown, it is not given here.
# What was measured:
# [1] = system: MHV-EFLM infection of LR7 cells; experiment: Virus-cell entry inhibition assay with luciferase-expressing MHV-EFLM; assay type: cell-based, mouse hepatitis virus (MHV) strain A59; details: peptide concentration 50 μM
# Experimental: FIG. 11: Inhibition of MHV infection by the HR2 peptide. LR7 cells were inoculated with the virus MHV-EFLM in the presence of different concentrations of HR2 peptide or, as a control, a peptide corresponding to amino acids 1003-1048 of the viral S protein. After one hour of inoculation, cells were washed and incubated further in the absence of peptide. To evaluate the success of the infection, cells were analyzed at 4 hours post-infection for luciferase expression. In the figure luciferase activity is plotted against the different peptide concentrations used.
# (§1) The potency of the HR2 peptide in inhibiting viral infection was determined using the recombinant MHV-EFLM expressing the firefly luciferase. Confluent monolayers of LR7 cells in 96-well plates were inoculated at 37° C. in DMEM at a multiplicity of infection of 5 for 1 hour in the presence of varying concentrations of peptide ranging from 0.4-50 μM. After 1 hour, cells were washed with DMEM and medium was replaced by peptide-free DMEM. At 5 hours post-infection cells were lysed for 15 minutes at RT in 50 μl Lysis buffer, according to the manufacturer's protocol (Luciferase Assay System, Promega). Upon mixing of 10 μl cell lysate with 40 μl substrate, luciferase activity was measured immediately using a Wallace Betaluminometer. […]
# [2] = system: MHV-A59 spike mediated cell-cell fusion in LR7 cells; experiment: Cell-cell fusion inhibition plaque assay; assay type: cell-based, mouse hepatitis virus (MHV) strain A59
# Experimental: FIG. 12: Inhibition of cell-cell fusion by HR2 peptide. After inoculation of parallel cultures of LR7, cells with MHV-A59 cells were overlaid with agar medium containing different concentrations of HR2 peptide and plaques were counted the following day.
# as §1
sequence,measurement,setting,value
GPIEGRDLSLDFEKLNVTLLDLTYEMNRIQDAIKKLNESYINLKE [HR2 peptide],inhibition of viral infection (entry),[1],inhibited virtually completely
same,formation of plaques (cell-cell fusion),[2]; 0.08 μM HR2 peptide in agar overlay,only tiny plaques
same,formation of plaques (cell-cell fusion),[2]; HR2 peptide in agar overlay at concentrations of up to 0.4 μM,completely abolished
